The target of this assay is T1, HPK1 (Homo sapiens, UniProt Q92918).
T1 construct: A HiBiT tag was introduced by CRISPR on the N terminus of HPK1 in Jurkat cells; host or cells: Jurkat (ATCC TIB-152), monoclonal CRISPR HiBiT knock-in line
Briefly: HPK1 Cellular HiBiT Degradation Assay. The settings on record: HiBiT-tagged HPK1 Jurkat cells, 24 hours, 10 uM to 0.1 nM; Dmax = 100 minus lowest % HPK1 remaining vs DMSO vehicle. It counts as cell-based. Put shortly: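 Dmax is derived from four-parameter curves of % HPK1 remaining, as 100 minus the lowest value, normalized to DMSO-treated cells with parental Jurkat background subtracted. HiBiT-HPK1 knock-in Jurkat cells got compound for 24 hours (final 10 uM to 0.1 nM, 11 points) before lytic HiBiT luminescence. Cytotoxicity was checked on parallel CellTiter-Glo plates.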
For orientation: With HiBiT, luminescence reflects the tagged protein that the partner subunit can reach.

Some results are limits rather than exact numbers.

T1 sequence (Q92918 whole entry): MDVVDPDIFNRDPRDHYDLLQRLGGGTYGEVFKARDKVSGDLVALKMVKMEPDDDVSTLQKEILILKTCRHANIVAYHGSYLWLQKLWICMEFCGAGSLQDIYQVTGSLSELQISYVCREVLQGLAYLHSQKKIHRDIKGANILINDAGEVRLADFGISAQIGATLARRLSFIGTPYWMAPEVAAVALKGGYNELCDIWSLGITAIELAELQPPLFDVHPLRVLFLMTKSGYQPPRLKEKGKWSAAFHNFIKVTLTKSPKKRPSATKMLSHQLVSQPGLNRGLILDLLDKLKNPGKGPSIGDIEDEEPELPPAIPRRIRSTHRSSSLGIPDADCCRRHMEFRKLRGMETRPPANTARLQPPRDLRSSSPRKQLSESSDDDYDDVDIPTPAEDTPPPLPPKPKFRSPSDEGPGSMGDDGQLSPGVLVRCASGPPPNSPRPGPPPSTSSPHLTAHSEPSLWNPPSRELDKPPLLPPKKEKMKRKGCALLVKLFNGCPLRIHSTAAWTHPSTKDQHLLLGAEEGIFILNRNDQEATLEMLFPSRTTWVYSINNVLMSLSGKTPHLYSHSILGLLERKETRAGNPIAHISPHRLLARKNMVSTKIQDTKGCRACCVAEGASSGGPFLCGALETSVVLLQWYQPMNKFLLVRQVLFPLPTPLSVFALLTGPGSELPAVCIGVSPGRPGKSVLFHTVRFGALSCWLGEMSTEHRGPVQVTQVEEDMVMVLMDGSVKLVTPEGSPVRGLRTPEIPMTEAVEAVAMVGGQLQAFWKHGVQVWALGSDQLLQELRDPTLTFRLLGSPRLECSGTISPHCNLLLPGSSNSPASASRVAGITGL

As a reminder, the Dmax is the largest share of the target that was removed. The low end stands for shallow degradation, the high end for deep degradation. In the case of `Cc1cc(F)c(Nc2nc(-c3ccc4c(c3)N([C@H]3C[C@@H](N5CCCCC5)C3)C(=O)C43CCN(C(=O)C4CCN(C(=O)[C@H]5CC[C@H](Nc6cccc7c6C(=O)N(C6CCC(=O)NC6=O)C7=O)CC5)CC4)CC3)cc3ncn(C(C)C)c23)cc1C(=O)NC(C)C` (stereo partly drawn) [Example 60, 4-fluoro-2-methyl-5-{[6-(2-oxo-1′-{1-[(1R,4R)-4-({2-[2,6-dioxopiperidin-3-yl]-1,3-dioxo-2,3-dihydro-1H-isoindol-4-yl}amino)cyclohexanecarbonyl]piperidine-4-carbonyl}-1-[(1s,3s)-3-(piperidin-1-yl)cyclobutyl]-1,2-dihydrospiro[indole-3,4′-piperidin]-6-yl)-3-(propan-2-yl)-3H-imidazo[4,5-c]pyridin-4-yl]amino}-N-(propan-2-yl)benzamide], the greatest degradation seen (Dmax) is greater than 65%.

With `Cc1cc(F)c(Nc2nc(-c3ccc4c(c3)N(C3CC(N5CCCCC5)C3)C(=O)C43CCN(C(=O)c4ccc(C(=O)N(C)C5CCC(Nc6cccc7c6C(=O)N(C6CCC(=O)NC6=O)C7=O)CC5)cc4)CC3)cc3ncn(C(C)C)c23)cc1C(=O)NC(C)C` [Example 61, 4-fluoro-2-methyl-5-({6-[1′-(4-{methyl[(1R,4R)-4-{[2-(2,6-dioxopiperidin-3-yl)-1,3-dioxo-2,3-dihydro-1H-isoindol-4-yl]amino}cyclohexyl]carbamoyl}benzoyl)-2-oxo-1-[(1s,3s)-3-(piperidin-1-yl)cyclobutyl]-1,2-dihydrospiro[indole-3,4′-piperidin]-6-yl]-3-(propan-2-yl)-3H-imidazo[4,5-c]pyridin-4-yl}amino)-N-(propan-2-yl)benzamide], the “Cellular HPK1 HiBiT: Dmax (%)” value is reported as “A (A>65%)”. `Cc1cc(F)c(Nc2nc(-c3ccc4c(c3)N([C@H]3C[C@@H](N5CCCCC5)C3)C(=O)C43CCN(C(=O)[C@H]4CC[C@@H](C(=O)N5CCC(N(C)c6cccc7c6C(=O)N(C6CCC(=O)NC6=O)C7=O)CC5)CC4)CC3)cc3ncn(C(C)C)c23)cc1C(=O)NC(C)C` (stereo partly drawn) [Example 62, 4-fluoro-2-methyl-5-[(6-{2-oxo-1-[(1s,3s)-3-(piperidin-1-yl)cyclobutyl]-1′-[(1S,4s)-4-(4-{[2-(2,6-dioxopiperidin-3-yl)-1,3-dioxo-2,3-dihydro-1H-isoindol-4-yl](methyl)amino}piperidine-1-carbonyl)cyclohexanecarbonyl]-1,2-dihydrospiro[indole-3,4′-piperidin]-6-yl}-3-(propan-2-yl)-3H-imidazo[4,5-c]pyridin-4-yl)amino]-N-(propan-2-yl)benzamide] yielded a maximal degradation (Dmax) of 45 to 65%. In turn, `Cc1cc(F)c(Nc2nc(-c3ccc4c(c3)N([C@H]3C[C@@H](N5CCCCC5)C3)C(=O)C43CCN(C(=O)c4ccc(OC5CCN(c6cccc7c6C(=O)N(C6CCC(=O)NC6=O)C7=O)CC5)cc4)CC3)cc3ncn(C(C)C)c23)cc1C(=O)NC(C)C` (stereo partly drawn) [Example 63, 5-{[6-(1′-{4-[(1-{2-[2,6-dioxopiperidin-3-yl]-1,3-dioxo-2,3-dihydro-1H-isoindol-4-yl}piperidin-4-yl)oxy]benzoyl}-2-oxo-1-[(1s,3s)-3-(piperidin-1-yl)cyclobutyl]-1,2-dihydrospiro[indole-3,4′-piperidin]-6-yl)-3-(propan-2-yl)-3H-imidazo[4,5-c]pyridin-4-yl]amino}-4-fluoro-2-methyl-N-(propan-2-yl)benzamide] showed a Dmax greater than 65%. Consider `Cc1cc(F)c(Nc2nc(-c3ccc4c(c3)N([C@H]3C[C@@H](N5CCCCC5)C3)C(=O)C43CCN(C(=O)c4ccc(OC5CCN(c6ccc7c(c6)C(=O)N(C6CCC(=O)NC6=O)C7=O)CC5)cc4)CC3)cc3ncn(C(C)C)c23)cc1C(=O)NC(C)C` (stereo partly drawn) [Example 64, 5-{[6-(1′-{4-[(1-{2-[2,6-dioxopiperidin-3-yl]-1,3-dioxo-2,3-dihydro-1H-isoindol-5-yl}piperidin-4-yl)oxy]benzoyl}-2-oxo-1-[(1s,3s)-3-(piperidin-1-yl)cyclobutyl]-1,2-dihydrospiro[indole-3,4′-piperidin]-6-yl)-3-(propan-2-yl)-3H-imidazo[4,5-c]pyridin-4-yl]amino}-4-fluoro-2-methyl-N-(propan-2-yl)benzamide], for which the Dmax is greater than 65%. Take `Cc1cc(F)c(Nc2nc(-c3ccc4c(c3)N([C@H]3C[C@@H](N5CCCCC5)C3)C(=O)C43CCN(C(=O)c4ccn(C5CCN(Cc6cccc7c6C(=O)N(C6CCC(=O)NC6=O)C7=O)CC5)n4)CC3)cc3ncn(C(C)C)c23)cc1C(=O)NC(C)C` (stereo partly drawn) [Example 65, 5-{[6-(1′-{1-[1-({2-[2,6-dioxopiperidin-3-yl]-1,3-dioxo-2,3-dihydro-1H-isoindol-4-yl}methyl)piperidin-4-yl]-1H-pyrazole-3-carbonyl}-2-oxo-1-[(1s,3s)-3-(piperidin-1-yl)cyclobutyl]-1,2-dihydrospiro[indole-3,4′-piperidin]-6-yl)-3-(propan-2-yl)-3H-imidazo[4,5-c]pyridin-4-yl]amino}-4-fluoro-2-methyl-N-(propan-2-yl)benzamide]: the maximal degradation (Dmax) was 45 to 65%. `Cc1cc(F)c(Nc2nc(-c3ccc4c(c3)N([C@H]3C[C@@H](N5CCCCC5)C3)C(=O)C43CCN(C(=O)C4CCN(C(=O)[C@H]5CC[C@H](N(C)c6cccc7c6C(=O)N(C6CCC(=O)NC6=O)C7=O)CC5)CC4)CC3)cc3ncn(C(C)C)c23)cc1C(=O)NC(C)C` (stereo partly drawn) [Example 66, 4-fluoro-2-methyl-5-{[6-(2-oxo-1′-{1-[(1R,4R)-4-({2-[2,6-dioxopiperidin-3-yl]-1,3-dioxo-2,3-dihydro-1H-isoindol-4-yl}(methyl)amino)cyclohexanecarbonyl]piperidine-4-carbonyl}-1-[(1s,3s)-3-(piperidin-1-yl)cyclobutyl]-1,2-dihydrospiro[indole-3,4′-piperidin]-6-yl)-3-(propan-2-yl)-3H-imidazo[4,5-c]pyridin-4-yl]amino}-N-(propan-2-yl)benzamide] returned a Dmax greater than 65%.

In turn, `Cc1cc(F)c(Nc2nc(-c3ccc4c(c3)N([C@H]3C[C@@H](N5CCCCC5)C3)C(=O)C43CCN(C(=O)[C@@H]4CCN(C(=O)[C@H]5CC[C@H](N(C)c6cccc7c6C(=O)N(C6CCC(=O)NC6=O)C7=O)CC5)C4)CC3)cc3ncn(C(C)C)c23)cc1C(=O)NC(C)C` (stereo partly drawn) [Example 67, 4-fluoro-2-methyl-5-[(6-{2-oxo-1′-[(3R)-1-[(R,4R)-4-({2-[2,6-dioxopiperidin-3-yl]-1,3-dioxo-2,3-dihydro-1H-isoindol-4-yl}(Methyl)amino)cyclohexanecarbonyl]pyrrolidine-3-carbonyl]-1-[(1s,3s)-3-(piperidin-1-yl)cyclobutyl]-1,2-dihydrospiro[indole-3,4′-piperidin]-6-yl}-3-(propan-2-yl)-3H-imidazo[4,5-c]pyridin-4-yl)amino]-N-(propan-2-yl)benzamide] returned a Dmax greater than 65%. Same read-out and setting: the same measure for `Cc1cc(F)c(Nc2nc(-c3ccc4c(c3)N([C@H]3C[C@@H](N5CCCCC5)C3)C(=O)C43CCN(C(=O)C4CCN(C(=O)N5CCC(Nc6cccc7c6C(=O)N(C6CCC(=O)NC6=O)C7=O)CC5)CC4)CC3)cc3ncn(C(C)C)c23)cc1C(=O)NC(C)C` (stereo partly drawn) [Example 68, 5-{[6-(1′-{1-[4-({2-[2,6-dioxopiperidin-3-yl]-1,3-dioxo-2,3-dihydro-1H-isoindol-4-yl}amino)piperidine-1-carbonyl]piperidine-4-carbonyl}-2-oxo-1-[(1s,3s)-3-(piperidin-1-yl)cyclobutyl]-1,2-dihydrospiro[indole-3,4′-piperidin]-6-yl)-3-(propan-2-yl)-3H-imidazo[4,5-c]pyridin-4-yl]amino}-4-fluoro-2-methyl-N-(propan-2-yl)benzamide]: 45 to 65%.

The values are drawn from patent US11739101B2, “Bifunctional degraders of hematopoietic progenitor kinase and therapeutic uses thereof” (Nurix Therapeutics, Inc., priority 2020, dated 2023).
